Test results taken from patent publication US7829548B2, “Compounds useful in the treatment of HIV” (Medivir AB, priority 2004, dated 2010).
Like-named read-outs stand apart in the source and are kept apart here.

What was measured:
[1] = tested on: TAM primer rescue-related resistant HIV isolates; assay: Drug susceptibility assay in PBMC culture (p24 antigen); type: cell-based, HIV-1; conditions: primer rescue mutant isolates of Table 4
Protocol: The antiviral performance of the compound of the invention against additional TAM primer rescue-related resistant HIV isolates was assayed in a PBMC culture. Isolates of HIV-1 were generated and expanded to high titer by co-cultivation of infected patient PBMC with PHA-stimulated donor PBMC (Virology Manual for ACTG HIV Laboratories). The cell-free supernatants were harvested, sequenced, and stored in aliquots at −70° C. for drug susceptibility assays.
In vitro drug susceptibility assays were performed using a modified ACTG/DOD consensus method (Virology Manual for ACTG HIV laboratories). PBMCs were pre-infected with viral stocks for 4 hrs at […] in a humidified atmosphere of 5% CO2 following 4 hr incubation. Infected cells were washed twice in media and pipetted into a microtiter plate with eight serial drug dilutions. Each well contained 100,000 pre-infected PBMC and all drug dilutions were made with cell culture medium. The drug dilutions were chosen to span the 50% inhibitory concentration (IC50) for each single drug. Control wells containing cells and virus were co-incubated on each plate. After a 7-day incubation at […] in a […] atmosphere of 5% CO2, viral growth was determined using a p24 antigen assay on supernatants (Abbott Laboratories, Chicago, USA). The percent inhibition of viral growth compared to the control well, which contained no drug, was calculated and expressed as fold changes (reductions in compounds susceptibility) compared to the control well. The reference compound AZT was run in parallel with the compound of the invention.
A cluster of representative of primer rescue-related mutant virus was selected that harbors the essential feature of primer rescue-related TAM resistant RT mutations. Strains with mutations at position M41L, D67N, K70R, L210W, T215Y/F and K219Q/E in various combinations with or without discriminative mutant M184V were used as indicated in Table 4.

HIV = assay: Antiretroviral ED50 in human H9 cells; type: cell-based; conditions: Human immunodeficiency virus 1
[2] = tested on: HIV-1 isolates from patient plasma samples; type: cell-based
Protocol: The susceptibility of 2′,3′-dideoxy-3′-C-hydroxymethyl-cytosine on HIV-1 isolates from patient plasma samples that bear typical TAM primer rescue mutant resistant genotypes is determined by the commercially available PhenoSense HIV assay (described in Petropoulos, C J et al., (2000) Antimicrob. Agents Chemother. 44:920-928 and performed by ViroLogics, Inc). The assay is performed by amplifying the protease (PR)-RT segment of the HIV pol gene from patient plasma and inserting the amplification products into a modified HIV-1 vector derived from an NL4-3 molecular clone.
Viral stocks are prepared by co-transfecting 293 cell cultures with recombinant viral DNA vector and an expression vector that produces the amphotropic murine leukemia virus envelope proteins. Pseudotyped virus particles are harvested from the transfected cell cultures and are used to infect fresh 293 cell cultures. The recombinant viral DNA contains a luciferase gene cassette within the HIV env gene region and the production of luciferase in target cells is dependent on the completion of one round of virus replication. Drug susceptibility is measured by adding serial concentrations of the compound of the invention and the reference compounds to the cells. Drugs that inhibit virus replication reduce luciferase signal in a dose-dependent manner, providing a quantitative measure of drug susceptibility.

Which results are given for `Nc1ccn([C@H]2C[C@H](CO)[C@@H](CO)O2)c(=O)n1` [compound of the invention, 2′,3′-dideoxy-3′-C-hydroxymethylcytidine]?
FC value [1]: ≤ 2.7; EC50 (HIV): ~10 nM; FC value ([2]; isolate 4 (K65R+M184V, R211S, K219E)): 3.88; fold difference in susceptibility ([2]; patient isolate 19 (M184V + TAMs), compared to wild type HIV): 1.78 fold; fold reduction in susceptibility ([2]; patient isolate 20 (TAM), compared to wild-type HIV): 1.0 fold; fold reduction in susceptibility ([2]; patient isolate 21 (TAM), compared to wild-type HIV): < 1.0 fold; fold reduction in susceptibility ([2]; patient isolate 32 (T69S + VG insertion)): 2.79 fold; fold reduction in susceptibility ([2]; patient isolate 35 (T69S + VA insertion)): 4.29 fold; change in drug susceptibility ([2]; patient isolates 31, 32 and 35 (T69S + XX + TAMs), compared with six reference antivirals): smallest change in drug susceptibility
